pIC50: −log10 of the molar value.
Key:
[1] = test system: Porcine Smooth Muscle Cell; assay: Cell proliferation using 3H thymidine incorporation; assay type: cell-based; conditions: for inhibition at 500 µM: Sus scrofa, read-out: Porcine Smooth Muscle Cell Antiproliferation, % inhibition; for pIC50: serum/growth factor stimulated cells, 3H thymidine incorporation, 24-36 h, read-out: Porcine Smooth Muscle Cell Antiproliferation IC50
Description: Effects of Compounds on Cell Proliferation Using ^3H Thymidine Incorporation
Human and porcine smooth muscle cells were tested in early passage (generally passage 3-7) at sub-confluent conditions. Cultures were grown in 16 mm (24 well) multi-well culture dishes in medium 199 supplemented with 10% fetal bovine serum and 2% antibiotic/antimycotic. At sub-confluence, the cells were placed in a defined serum free medium (AIM-V; Gibco) for 24-48 h prior to initiating the experimental protocol.
Compounds were added to each well at 50 fold dilution (20 μL/well) and the plates were incubated for 24-36 h at 37° C. in 5% CO2. Compounds were initially dissolved in 50% ethanol and serially diluted into media. Compounds were routinely evaluated at concentrations from 1 to 100 μM. As a control, grade II porcine intestinal mucosal heparin (sodium salt) was routinely evaluated in all cell preparations at concentrations from 0.1 to 100 μg/mL.
At the completion of the test procedure, plates were placed on ice, washed three times with ice cold phosphate buffered saline (PBS) and incubated in ice cold 10% trichloroacetic acid (TCA) got 30 min to remove acid soluble proteins. Solution was transferred to scintillation vials containing 0.4 N HCl (500 μL/vial to neutralize NaOH) and each well was rinsed two times with water (500 μL) for a total volume of 2 mL/vial.
Data was obtained, in triplicate, for both control and experimental samples. Control (100%) data was obtained from maximally stimulated cells, as the result of growth factor or serum stimulation. Experimental data was obtained from cells maximally stimulated with growth factor or serum and treated with compound. Data are expressed as an IC50 in Table I below.

melting point [°C] | Compound | inhibition at 500 µM [1] [%] | pIC50 [1]
95 to 134 | Nc1cc(COC2OC(CO)C(OC3OC(CO)C(OC4OC(CO)C(O)C(O)C4O)C(O)C3O)C(O)C2O)ccc1Cl [Example 5, 5-(β-D-maltotriosyloxymethyl)-2-chloro-phenylamine] | 25 | –
– | N-[5-(Deca-O-acetyl-β-D-maltotriosyloxymethyl)-2-chloro-phenyl]-acetamide [Example 2] | – | 4.65
135 to 148 | CC(=O)Nc1cc(COC2OC(CO)C(OC3OC(CO)C(OC4OC(CO)C(O)C(O)C4O)C(O)C3O)C(O)C2O)ccc1Cl [Example 3, N-[5-(β-D-maltotriosyloxymethyl)-2-chloro-phenyl]-acetamide] | 10 | –
– | 5-(Deca-O-acetyl-β-D-maltotriosyloxymethyl)-2-chloro-1-nitrobenzene [Example 1] | – | 5.74
– | N-[5-(Deca-O-sulfo-β-D-maltotriosyloxymethyl)-2-chloro-phenyl]-acetamide decasodium salt [Example 4] | – | 3.95

Source: US6451767B1, “Benzylmaltotriosides as inhibitors of smooth muscle cell proliferation” (Wyeth, priority 1998, dated 2002)
